Test [1] has as its system JY-8 cells (expressing LFA-1) adhering to immobilized ICAM-1. Put plainly: ICAM-1/JY-8 Cell Adhesion Assay (46B). The following applies: JY-8 cell adhesion to ICAM-1; for inhibition at 2 µM / inhibition at 4 µM / inhibition at 1 µM: Homo sapiens; for inhibition at 2 µM / % inhibition: @ 2 μM compound (cell); for inhibition at 4 µM: @ 4 μM compound; for inhibition at 1 µM: @ 1 μM compound (cell). It counts as cell-based, human. On the procedure:
Biologically relevant activity of the compounds in this invention was confirmed using a cell-based adhesion assay, (described below as assay 46B) which measured the ability of the present compounds to block the adherence of JY-8 cells (a human EBV-transformed B cell line expressing LFA-1 on its surface) to immobilized ICAM-1.
46B. ICAM-1 /JY-8 Cell Adhesion Assay
For measurement of inhibitory activity in the cell-based adhesion assay, 96-well microtiter plates are coated with 70 μL of recombinant ICAM-1/g (ICOS Corporation) at a concentration of 5 μg/mL in D-PBS w/o Ca^++ or Mg^++ overnight at 4° C. The wells are then washed twice with D-PBS and blocked by addition of 200 μL of D-PBS, 5% fish skin gelatin by incubation for 1 hour at room temperature. Fluorescent tagged JY-8 cells (a human EBV-transformed B cell line expressing LFA-1 on its surface; 50 μL at 2×10^6 cells/ml in RPMI 1640 (standard cell culture medium)/1% fetal bovine serum) are added to the wells. For fluorescent labeling of JY-8 cells, 5×10^6 cells washed once in RPMI 1640 are resuspended in 1 mL of RPMI 1640 containing 2 μM Calceiun AM (MolecularProbes), are incubated at 37° C for 30 minutes and washed once with RPMI-1640/1% fetal bovine serum. Dilutions of compounds to be assayed for ICAM-1/LFA-1 antagonistic activity are prepared in RPMI-1640/1% fetal bovine serum from 10 mM stock solutions in DMSO and 50 μL are added to duplicate wells. Microtiter plates are incubated for 45 minutes at room temperature and the wells are washed gently once with RPMI-1640/1% fetal bovine serum. Fluorescent intensity is measured in a fluorescent plate reader with an excitation wavelength at 485 nm and an emission wavelength at 530 nm. The percent inhibition of a candidate compound at a given concentration is calculated using the following equation: [formula]
and these concentration/inhibition data are used to generate dose response curves, from which IC50 values are derived.

In test [2] the target is T1, ICAM-1/LFA-1 interaction (recombinant LFA-1, biotinylated recombinant ICAM-1/Ig) (Homo sapiens, UniProt P20701).
T1 construct: Recombinant LFA-1 (100 mL of 0.7 mg/ml, ICOS Corporation) in D-PBS is then added to each well
T1 sequence (P20701 26-1170): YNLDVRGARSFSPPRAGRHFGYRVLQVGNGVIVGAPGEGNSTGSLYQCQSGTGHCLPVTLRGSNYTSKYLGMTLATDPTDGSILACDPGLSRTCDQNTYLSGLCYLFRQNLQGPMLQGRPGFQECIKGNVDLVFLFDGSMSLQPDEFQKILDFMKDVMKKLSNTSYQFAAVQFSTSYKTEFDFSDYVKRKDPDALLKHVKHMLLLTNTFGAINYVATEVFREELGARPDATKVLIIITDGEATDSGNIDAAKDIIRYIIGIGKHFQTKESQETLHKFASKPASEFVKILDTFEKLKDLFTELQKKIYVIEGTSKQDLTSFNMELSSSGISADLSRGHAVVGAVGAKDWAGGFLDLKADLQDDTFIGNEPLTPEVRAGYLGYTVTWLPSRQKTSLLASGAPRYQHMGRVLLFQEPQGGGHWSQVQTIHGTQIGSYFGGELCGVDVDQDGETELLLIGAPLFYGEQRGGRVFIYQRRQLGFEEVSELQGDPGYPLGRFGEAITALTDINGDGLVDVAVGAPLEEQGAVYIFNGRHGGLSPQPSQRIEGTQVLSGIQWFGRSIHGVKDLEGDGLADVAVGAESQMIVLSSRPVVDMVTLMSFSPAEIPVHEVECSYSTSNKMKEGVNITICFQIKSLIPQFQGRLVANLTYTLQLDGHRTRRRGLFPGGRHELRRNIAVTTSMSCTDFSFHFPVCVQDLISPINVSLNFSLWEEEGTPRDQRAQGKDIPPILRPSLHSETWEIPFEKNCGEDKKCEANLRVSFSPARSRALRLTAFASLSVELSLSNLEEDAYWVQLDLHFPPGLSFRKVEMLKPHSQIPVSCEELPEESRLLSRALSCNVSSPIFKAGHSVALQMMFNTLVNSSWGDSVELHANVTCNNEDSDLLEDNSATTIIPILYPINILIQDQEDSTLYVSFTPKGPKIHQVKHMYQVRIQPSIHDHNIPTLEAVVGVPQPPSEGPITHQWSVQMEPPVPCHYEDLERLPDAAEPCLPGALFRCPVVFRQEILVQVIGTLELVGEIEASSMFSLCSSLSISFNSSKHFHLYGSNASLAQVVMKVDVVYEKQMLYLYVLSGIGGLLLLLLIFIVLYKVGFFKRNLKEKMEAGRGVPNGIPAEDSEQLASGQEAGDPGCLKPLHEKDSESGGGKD
T1 sequence (P05107 23-769 partner): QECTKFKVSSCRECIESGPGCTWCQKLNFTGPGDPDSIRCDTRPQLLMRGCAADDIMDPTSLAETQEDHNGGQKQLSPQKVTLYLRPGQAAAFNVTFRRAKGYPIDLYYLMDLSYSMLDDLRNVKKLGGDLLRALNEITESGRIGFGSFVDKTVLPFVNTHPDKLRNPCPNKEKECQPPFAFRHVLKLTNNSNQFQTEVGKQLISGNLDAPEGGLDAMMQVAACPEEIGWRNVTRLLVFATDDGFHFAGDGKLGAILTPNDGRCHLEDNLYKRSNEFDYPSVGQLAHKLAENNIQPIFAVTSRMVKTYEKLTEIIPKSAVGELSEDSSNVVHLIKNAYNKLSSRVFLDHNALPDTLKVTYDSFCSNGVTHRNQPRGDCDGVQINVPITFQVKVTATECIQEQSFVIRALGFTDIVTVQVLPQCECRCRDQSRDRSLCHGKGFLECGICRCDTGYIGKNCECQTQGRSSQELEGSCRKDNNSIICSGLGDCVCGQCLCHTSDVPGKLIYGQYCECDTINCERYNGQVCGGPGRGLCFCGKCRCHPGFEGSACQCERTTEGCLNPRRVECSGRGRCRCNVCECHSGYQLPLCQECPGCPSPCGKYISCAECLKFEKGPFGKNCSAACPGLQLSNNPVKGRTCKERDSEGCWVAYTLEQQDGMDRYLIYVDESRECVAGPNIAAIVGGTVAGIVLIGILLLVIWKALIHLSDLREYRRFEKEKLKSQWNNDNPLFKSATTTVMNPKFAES
Put plainly: ICAM-1/LFA-1 Biochemical Interaction Assay (46A). The class given is binding. The following applies: for inhibition at 2 µM: read-out: % inhibition. On the procedure:
Compounds that antagonize the interaction between ICAM-1 and LFA-1 can be identified, and their activities quantitated, using both biochemical and cell-based adhesion assays. A primary biochemical assay, described below as assay 46A, was utilized to measure the ability of the present compounds to block the interaction between the integrin LFA-1 and its adhesion partner ICAM-1.
46A. ICAM-1/LFA-1 Biochemical Interaction Assay
In the biochemical assay, 100 mL of anti-LFA-1 antibody (ICOS Corporation) at a concentration of 5 mg/ml in Dulbecco's phosphate-buffered saline (D-PBS) is used to coat wells of a 96-well microtiter plate overnight at 4° C. The wells are then washed twice with wash buffer (D-PBS w/o Ca^++ or Mg^++, 0.05% Tween 20) and blocked by addition of 200 mL of D-PBS, 5% fish skin gelatin. Recombinant LFA-1 (100 mL of 0.7 mg/ml, ICOS Corporation) in D-PBS is then added to each well. Incubation continues for 1 hour at room temperature and the wells are washed twice with wash buffer. Serial dilutions of compounds being assayed as ICAM-1/LFA-1 antagonists, prepared as 10 mM stock solutions in dimethyl sulfoxide (DMSO), are diluted in D-PBS, 2 mM MgCl2, 1% fish skin gelatin and 50 mL of each dilution added to duplicate wells. This is followed by addition of […] of 0.8 mg/ml biotinylated recombinant ICAM-1/Ig (ICOS Corporation) to the wells and the plates are incubated at room temperature for 1 hour The wells are then washed twice with wash buffer and 100 mL of Europium-labeled Streptavidin (Wallac Oy) diluted 1:100 in Delfia assay buffer (Wallac Oy) are added to the wells. Incubation proceeds for 1 hour at room temperature. […] Incubation proceeds for 5 minutes with constant mixing.
where “background” refers to wells that are not coated with anti-LFA-1 antibody.

What is called inhibition is the relative decrease from the control value, in per cent. Consider `CC(C)c1ccccc1Sc1ccc(C2CC2C(=O)N2CCC(C(=O)O)CC2)c(Cl)c1Cl` (racemic) [Example 18, (±)-(2-Isopropylphenyl)[2,3-dichloro-4-(trans-(2-(4-carboxypiperidin-1-yl)carbonyl)cycloprop-1-yl)phenyl]sulfide], for which the inhibition at 2 µM in test [1] came out at 84%; in test [2] (@ 2 μM compound), 93%.
As to “(±)-(3-Morpholin-1-ylphenyl)[2-trifluoromethyl-4-(trans-(2-((3-(1-pyrrolidin-2-onyl)-prop-1-ylamino)carbonyl)cycloprop-1-yl)phenyl]sulfide [Example 11]”, the “% inhibition” value in test [1] is recorded as 86% @ 2 μM; in test [2] (@ 4 μM compound), 96% @ 4 μM.
“(±)-(2-Piperidin-1-ylphenyl)[2-trifluoromethyl-4-(trans-(2-((3-(1-pyrrolidin-2-onyl)-prop-1-ylamino)carbonyl)cycloprop1-yl)phenyl]sulfide [Example 9]”: the “% inhibition” value in test [1] is recorded as 89% @ 2 μM; in test [2] (@ 2 μM compound), 97% @ 2 μM.
Consider `O=C(NCCCN1CCCC1=O)C1CC1c1ccc(Sc2ccccc2N2CCOCC2)c(Cl)c1` (racemic) [Example 8, (±)-(2-Morpholin-1-ylphenyl)[2-chloro-4-(trans-(2-((3-(1-pyrrolidin-2-onyl)-prop-1-ylamino)carbonyl)cycloprop-1-yl)phenyl]sulfide], for which the inhibition at 4 µM was determined as 70% in test [1] and 94% in test [2] (@ 4 μM compound). Further, in test [2] (@ 2 μM compound), the inhibition at 2 µM came to 94%.
Consider `CN(CCCN1CCCC1=O)C(=O)C1CC1c1ccc(Sc2ccccc2N2CCOCC2)c(C(F)(F)F)c1` (racemic) [Example 13, (±)-(2-Morpholin-1-ylphenyl)[2-trifluoromethyl-2-(trans-(2-((3-(1-pyrrolidin-2-onyl)-propyl-N-methylamino)carbonyl)cycloprop-1-yl)phenyl]sulfide], for which the inhibition at 1 µM in test [1] is 86%. Further, the inhibition at 4 µM in test [2] (@ 4 μM compound) was determined as 93%.
In the same order, the values of `O=C(NCCCN1CCCC1=O)C1CC1c1ccc(Sc2ccccc2Br)c(Cl)c1Cl` (racemic) [Example 14, (±)-(2-Bromophenyl)[2,3-dichloro-4-(trans-(2-((3-(1-pyrrolidin-2-onyl)-prop-1-ylamino)carbonyl)cycloprop-1-yl)phenyl]sulfide] are 80% and 92%.
Consider `O=C(NCCCN1CCCC1=O)C1CC1c1ccc(Sc2ccccc2N2CCCCC2)c(C(F)(F)F)c1` (racemic) [Example 9, (±)-(2-Piperidin-1-ylphenyl)[2-trifluoromethyl-4-(trans-(2-((3-(1-pyrrolidin-2-onyl)-prop-1-ylamino)carbonyl)cycloprop1-yl)phenyl]sulfide], for which the results for the inhibition at 4 µM in test [1] and in test [2] (@ 4 μM compound) were 76% and 95%, respectively.
`CC(=O)N1CCN(C(=O)C2CC2c2ccc(Sc3ccccc3C(C)C)c(Cl)c2Cl)CC1` (racemic) [Example 21, (±)-(2-Isopropylphenyl)[2,3-dichloro-4-(trans-(2-(4-acetylpiperazin-1-yl)carbonyl)cycloprop-1-yl)phenyl]sulfide]: the inhibition at 2 µM in test [1] amounted to 88%; in test [2] (@ 2 μM compound), 94%.
For the compound `CC(C)c1ccccc1Sc1ccc(C2CC2C(=O)NCCC(=O)O)c(Cl)c1Cl` (racemic) [Example 16, (±)-(2-Isopropylphenyl)[2,3-dichloro-4-(trans-(2-(2-carboxyethylamino)carbonyl)cycloprop-1-yl)phenyl]sulfide], the inhibition at 2 µM in test [1] is 88%; in test [2] (@ 2 μM compound), 96%.

These data come from patent US6521619B2, “Aryl phenylcyclopropyl sulfide derivatives and their use as cell adhesion inhibiting anti-inflammatory and immune suppressive agents” (Icos Corporation, priority 2000, dated 2003).
